The text below walks through data of patent US12358902B2, “5-(2,5-bis(4-chloro-2-isopropylphenyl)thiophen-3-yl)-1H-tetrazole for the topical treatment of bacterial infections” (DENOVAMED INC., priority 2017, dated 2025).

Test [1] concerns USA300 MRSA strain. The test can be described thus: bactericidal activity. The test is classed as cell-based.
For test [2], the system named is AcpS. The test is described as follows: AcpS enzyme activity assay. Format: biochemical, S. aureus and E. coli. As to conditions: [3H]-labeled holo-ACP formation. The method, then:
The acpS gene was amplified from S. aureus and E. coli genomic DNA and inserted into a pET23b vector using standard recombinant DNA methodology such that the protein product would result in addition of a C-terminal 6×-His tag in frame with the AcpS open reading frames. […] Recombinant His-Tagged AcpS expression was induced by IPTG addition and overnight culture. Cell lysate was obtained by sequential aspiration through 16, 18 and 21 G needles in a buffer of 50 mM Tris-HCl (pH 8.5), 10 mM MgCl2, 2 mM DTT, 5% glycerol, and further adjusted to pH 8.1 with MES. […] In a typical AcpS enzyme activity assay, 57 μM [^3H]-labeled acyl-CoA, 2 μg apo-ACP, 10 mM MgCl2, 5 mM DTT, 50 mM Na phosphate (pH 7.0), and AcpS in a final volume of 10 μL were incubated at room temperature in a 1.5 mL microcentrifuge tube. At 5, 10, 15, and 20 minutes 2 μL of reaction were added to 750 μL 10% TCA on ice. Bovine serum albumin (BSA; 20 μl of a 25 mg/ml solution) was then added to facilitate precipitation of radiolabeled protein. The samples were centrifuged at 12 000 rcf for 5 min. […] 2 mL of scintillation fluid was added, and the amount of [^3H]-labeled holo-ACP formed was quantified by liquid scintillation counting. Each data point (remaining AcpS enzyme activity) was expressed as a percentage of vehicle control, with the median value of four time points presented.

Test [3] deals with USA100 MRSA strain. The test is described as follows: bactericidal activity. The test is classed as cell-based.

As for `CC(C)c1cc(Cl)ccc1-c1cc(-c2nnn[nH]2)c(-c2ccc(Cl)cc2C(C)C)s1` [Test Article, 5-(2,5-bis(4-chloro-2-isopropylphenyl)thiophen-3-yl)-1H-tetrazole], the bactericidal activity entry in test [1] and in test [3] was “rapidly bactericidal” throughout. In addition, the AcpS inhibition entry in test [2] is on record as “inhibited”.
